Columns and labels:
Assay type in all cases: physicochemical
[1] = Moisture uptake at 80% and 92% RH (HT-XRPD, TGMS); conditions: 25° C., 24 hours
Procedure: The moisture sorption of Modification A was evaluated by exposing the solid material to 80% and 92% RH at 25° C. for 24 hours. Afterwards, the solids were analyzed by HT-XRPD to evaluate any change in crystalline phase, and by TGMS to determine the water uptake. […] Therefore, Modification A could be considered non-hygroscopic.

[2] = Stability under compression; conditions: 5 minutes at 10 tons, hydraulic press
Procedure: 100-300 mg of polymorphic Form A was compressed for 5 minutes at 10 tons with a hydraulic press (diameter of the tablets 13 mm). The sample was then analyzed by XRPD and DSC to check for any occurring polymorphic change.

[3] = Solvent equilibration of Modification A (stability in solvent, HT-XRPD)
Procedure: (§1) Suspensions of Modification A were prepared in 23 selected solvents and let to equilibrate at room temperature (RT) for 4 weeks and at 50° C. for 2 weeks. Upon completion of the equilibration time, the solids were separated from the liquid phases, dried at ambient conditions and under vacuum (5 mbar/50° C.), and analyzed by HT-XRPD.
When the suspensions dissolved, the solvent was removed by evaporation under vacuum (initially at 200 mbar/RT, then at 5 mbar/50° C.). The liquid phases were also evaporated under the same conditions. Residual solids were analyzed by HT-XRPD.

[4] = Physico-chemical stability under stress conditions (HR-XRPD, TGMS, HPLC assay); conditions: for XRPD pattern after stress conditions: all three test conditions (80° C. 1 month; 80° C./75% RH 1 month; 100° C. 3 days)
Procedure: Modifications A, B and C were subjected to the following stress conditions: • 80° C. in closed vials for 1 month; • 80° C./75% RH in open vials for 1 month; • 100° C. in closed vials for 3 days;
Afterwards, the solids were analyzed by HR-XRPD, TGMS and HPLC assay to evaluate potential solid phase change, loss on drying and chemical purity.
Upon completion of the stability test, all solids were analyzed by HR-XRPD, TGMS and HPLC assay.
Auto sampler temp.: 15° C.
Column: Waters Sunfire C18 (100×4.6 mm; 3.5 μm).
Gradient: Mobile phase A: 0.1% TFA in Water
Mobile phase B: 0.1% TFA in Acetonitrile

[5] = Dynamic vapor sorption (DVS); conditions: for DVS highest change in mass: 95% RH
[6] = Granulation simulation experiments; conditions: water, ethanol, 2-propanol, Acetone, benzylalcohol; dried under vacuum
Procedure: Granulating solvents were added drop wise to polymorphic Form A until solid is wetted sufficiently. The suspension was stirred by Vortex between each addition. The suspension was dried under vacuum. The remaining solid form was isolated and degree of crystallinity was analyzed by XRPD and/or DSC. The tested Granulating solvents were water, ethanol, 2-propanol, Acetone, benzylalcohol.

[7] = Solvent equilibration of Modifications B and C (stability in solvent, HT-XRPD)
Procedure: as §1, with “Modifications B and C” for “Modification A”, “15” for “23”, “RT” for “room temperature (RT)”, “2” for “4”, “1 week.” for “2 weeks.”
When the suspensions dissolved, the solvent was removed by evaporation under vacuum (initially 200 mbar/RT, then 5 mbar/50° C.). The liquid phases were also evaporated under the same conditions. Residual solids were analyzed by HT-XRPD.

[8] = Conversion at room temperature monitored by HR-XRPD; conditions: left at room temperature
Description: Modification C (Example 2) was left at room temperature and the conversion into Modification B was monitored by HR-XRPD and it was complete after 5 days.

[9] = 80° C./75% RH, 1 month, open vial
[10] = Dichloromethane, 50° C., 1 week

Compound: C=CC(=O)N(C)CCOc1c(N)ncnc1-c1cc(F)cc(NC(=O)c2ccc(C3CC3)cc2F)c1C [Modification A, N-(3-(6-Amino-5-(2-(N-methylacrylamido)ethoxy)pyrimidin-4-yl)-5-fluoro-2-methylphenyl)-4-cyclopropyl-2-fluorobenzamide]
- TGMS mass loss after exposure to humidity ([1]; 80% RH): 0.2%
- Hygroscopicity ([1]; 80% and 92% RH): non-hygroscopic
- Physical stability (HT-XRPD) after exposure to humidity ([1]; 80 and 92% RH): physically stable
- TGMS mass loss after exposure to humidity ([1]; 92% RH): 0.2%
- Polymorphic change (XRPD and DSC) after compression [2]: no change to the material
- HT-XRPD Evap. ML ([3]; Acetone, 50° C., 2 weeks): A (l.y.)
- HT-XRPD Evap. ML ([3]; Acetonitrile, 50° C., 2 weeks): A (l.y.)
- HT-XRPD Evap. ML ([3]; Anisole, 50° C., 2 weeks): A (l.y.)
- HT-XRPD Evap. ML ([3]; Chloroform, 50° C., 2 weeks): A + B
- HT-XRPD Vacuum dried ([3]; DCM, RT, 4 weeks): B + C
- HT-XRPD Evap. ML ([3]; Isopropyl acetate, 50° C., 2 weeks): A (l.y.)
- HT-XRPD Evap. ML ([3]; MeOH, RT, 4 weeks): A (l.y.)
- HT-XRPD Evap. ML ([3]; MeOH/Acetone 50/50, RT, 4 weeks): A (l.y.)
- HT-XRPD Evap. ML ([3]; MeOH/DCM 50/50, RT, 4 weeks): B (l.y.)
- HT-XRPD Vacuum dried ([3]; MeOH/DCM 50/50, RT, 4 weeks): B + C
- HT-XRPD Evap. ML ([3]; Nitromethane, 50° C., 2 weeks): A (l.y.)
- HT-XRPD Evap. ML ([3]; Water, 50° C., 2 weeks): A (l.y.)
- Loss on drying ([4]; 80° C., 1 month, closed vial): 0.003%
- Loss on drying [4, 9]: 0.003%
- Loss on drying ([4]; 100° C., 3 days, closed vial): 0.003%
- XRPD pattern after stress conditions [4]: unchanged
- Solid recovered after DVS measurements ([5]; 25° and 40° C.): still Modification A
- DVS water vapor uptake ([5]; 25° and 40° C., RH profile 40-0-95-0-95-40%): did not show significant water vapor uptake
- DVS highest change in mass ([5]; 25° C.): 0.4%
- DVS highest change in mass ([5]; 40° C.): 0.3%
- Crystallinity (XRPD and/or DSC) after granulation simulation [6]: No change of crystallinity

Compound: C=CC(=O)N(C)CCOc1c(N)ncnc1-c1cc(F)cc(NC(=O)c2ccc(C3CC3)cc2F)c1C [Modification C, N-(3-(6-Amino-5-(2-(N-methylacrylamido)ethoxy)pyrimidin-4-yl)-5-fluoro-2-methylphenyl)-4-cyclopropyl-2-fluorobenzamide]
- HT-XRPD Evap. ML ([7]; 2-Methyl-2-butanol, 50° C., 1 week): A (l.y.)
- HT-XRPD Evap. ML ([7]; Acetone, 50° C., 1 week): A (l.y.)
- HT-XRPD Evap. ML ([7]; Acetonitrile, 50° C., 1 week): A (l.y.)
- HT-XRPD Evap. ML ([7]; Anisole, RT, 2 weeks): A (l.y.)
- HT-XRPD Ambient Dried ([7]; Chloroform, RT, 2 weeks): C + SC
- HT-XRPD Evap. ML ([7]; Chloroform, RT, 2 weeks): C + SC
- HT-XRPD Evap. ML ([7]; Cyclopentanone, RT, 2 weeks): A (l.y)
- HT-XRPD Evap. ML [7, 10]: C (l.y.)
- HT-XRPD Vacuum dried ([7]; Dichloromethane, RT, 2 weeks): B + C
- HT-XRPD Evap. ML ([7]; Ethanol, 50° C., 1 week): A (l.y.)
- HT-XRPD Evap. ML ([7]; Ethanol, RT, 2 weeks): A (l.y.)
- HT-XRPD Evap. ML ([7]; Isopropyl acetate, RT, 2 weeks): A (l.y.)
- HT-XRPD Evap. ML ([7]; Methanol, RT, 2 weeks): A (l.y.)
- HT-XRPD Evap. ML ([7]; Nitromethane, 50° C., 1 week): A (l.y.)
- HT-XRPD Evap. ML ([7]; Nitromethane, RT, 2 weeks): A (l.y.)
- HT-XRPD Evap. ML ([7]; Water, RT, 2 weeks): A (l.y.)
- Loss on drying ([4]; 80° C., 1 month, closed vial): 0.007%
- Loss on drying [4, 9]: 0.006%
- Loss on drying ([4]; 100° C., 3 days, closed vial): 0.003%
- XRPD pattern after stress conditions [4]: converted to Modification B
- DVS water vapor uptake ([5]; Modifications B and C): did not show significant water vapor uptake
- XRPD of solid recovered after DVS measurement ([5]; Modifications B and C, 25° C.): mixture of Modifications B and C
- Time to complete conversion into Modification B [8]: 5 days

Compound: C=CC(=O)N(C)CCOc1c(N)ncnc1-c1cc(F)cc(NC(=O)c2ccc(C3CC3)cc2F)c1C [Modification B, N-(3-(6-Amino-5-(2-(N-methylacrylamido)ethoxy)pyrimidin-4-yl)-5-fluoro-2-methylphenyl)-4-cyclopropyl-2-fluorobenzamide]
- HT-XRPD Evap. ML ([7]; Acetonitrile, 50° C., 1 week): A (l.y.)
- HT-XRPD Evap. ML ([7]; Anisole, RT, 2 weeks): A (l.y.)
- HT-XRPD Ambient Dried ([7]; Chloroform, RT, 2 weeks): A (l.y)
- HT-XRPD Vacuum dried ([7]; Chloroform, RT, 2 weeks): (l.c.)
- HT-XRPD Evap. ML [7, 10]: B + C
- HT-XRPD Vacuum dried [7, 10]: B + C
- HT-XRPD Ambient Dried ([7]; Dichloromethane, RT, 2 weeks): C (l.c.)
- HT-XRPD Evap. ML ([7]; Dichloromethane, RT, 2 weeks): B + SB (l.y.)
- HT-XRPD Vacuum dried ([7]; Dichloromethane, RT, 2 weeks): B + C
- HT-XRPD Evap. ML ([7]; Ethanol, 50° C., 1 week): A (l.y.)
- HT-XRPD Evap. ML ([7]; Isopropyl acetate, 50° C., 1 week): A (l.y.)
- HT-XRPD Evap. ML ([7]; Nitromethane, RT, 2 weeks): A (l.y.)
- Loss on drying ([4]; 80° C., 1 month, closed vial): 0.009%
- Loss on drying [4, 9]: 0.004%
- Loss on drying ([4]; 100° C., 3 days, closed vial): 0.004%
- XRPD pattern after stress conditions [4]: unchanged
- DVS water vapor uptake ([5]; Modifications B and C): did not show significant water vapor uptake
- XRPD of solid recovered after DVS measurement ([5]; Modifications B and C, 25° C.): unchanged
